{"source": "patent US12036214B2", "about": "“Solid dispersion comprising an anticancer compound for improved solubility and efficacy” (COUNCIL OF SCIENTIFIC AND INDUSTRIAL RESEARCH, priority 2018, dated 2024)", "key": {"MIAPaCa-2": {"tested_on": "MIAPaCa-2", "conditions": "read-out: MIAPaCa-2 cell growth GI50; cited from earlier work"}, "CYP/efflux-pump": {"tested_on": "CYP/efflux-pump", "conditions": "cited from earlier work"}, "[1]": {"tested_on": "Ehrlich Ascites Carcinoma (EAC) cells", "experiment": "Ehrlich solid tumor model", "assay_type": "in vivo", "method": "Novel oral solid dispersion containing anticancer compound of formula A was tested for in-vivo anticancer activity using Ehrlich Solid Tumor model. In this model, after oral administration of formulation VKB-SD75 and the compound of formula A in male Swiss mice up to 9 days, the % tumor growth inhibition was calculated on 13th day.\nThe in-vivo efficacy testing of best identified solid dispersion formulation VKB-SD75 was done using Ehrlich solid tumor model, parallelly with the compound of Formula A. Ehrlich Ascites Carcinoma (EAC) cells were collected from the peritoneal cavity of the Swiss mice weighing 18-23 g, harboring 8-10 days old ascetic tumor. 1×10^7 EAC cells were injected intramuscularly in the right thigh of Swiss male mice selected for the experiment on day 0. The next day, animals were randomized and divided into 8 groups. Seven treatment groups contained 7 animals each and one control groups contained 10 animals each. Treatment group 1-6 were treated with the compound of formula A and solid dispersion formulation at different dose strength once daily from day 1-9. The seventh treatment group was treated with 5-fluorouracil (22 mg/kg, i.p.) from day 1-9 and it served as positive control. The control group was similarly administered normal saline (0.2 ml, i.p) from day 1-9. On day 9 & 13, tumor-bearing thigh of each animal was shaved, and longest and shortest diameters of the tumor were measured with the help of vernier caliper. The percent tumor growth inhibition was calculated on day 13 by comparing the average values of treated groups with that of the control group. Tumor growth in saline-treated control animals was taken to be 100%."}, "[2]": {"tested_on": "cancer cells over normal fibroblast-cells", "conditions": "cited from earlier work"}, "[3]": {"experiment": "Water solubility by shake flask method with HPLC analysis", "assay_type": "physicochemical", "conditions": "distilled water, 25 °C, thermodynamic from solid", "method": "(§1) The water solubility of prepared solid dispersions along with compound of Formula A was determined using shake flask method, wherein the analysis was done by HPLC. The in-vitro dissolution studies were performed using U.S.P. type-2 (paddle type) dissolution apparatus at a speed of 50 rpm, and temperature of 37° C.±0.5, using 250 ml of dissolution media (0.25% SLS containing water and phosphate buffer pH 6.8 up to 6 h). Further, the solid dispersions were characterized using different analytical techniques such as DSC, FTIR, XRD, etc.\nSolid dispersions were formulated as different formulations containing anticancer compound (formula A) along with different polymers in different proportions as shown in Table 1 and 2. First the anticancer compound and various excipients/hydrophilic polymers were weighed accurately. Both the compound and polymers were dissolved in methanol. Those polymers which were insoluble in methanol were dissolved in water. […] After complete drying, the water solubility of compound was determined by shake-flask method followed by […] analysis. […]\nThe water solubility of formulations prepared in Example 4 and compound of Formula A was determined in each well of plate containing different solid dispersion formulations. […] The supernatant was then analyzed by RP-HPLC."}, "Molt-4": {"tested_on": "Molt-4", "conditions": "read-out: Molt-4 cell growth GI50; cited from earlier work"}, "Lipophilicity (log P)": {"experiment": "Lipophilicity (log P)", "assay_type": "physicochemical"}, "pancreatic xenograft": {"tested_on": "pancreatic xenograft", "conditions": "50 mg/kg, po; cited from earlier work"}, "colon xenograft": {"tested_on": "colon xenograft", "conditions": "50 mg/kg, po; cited from earlier work"}, "in vivo": {"experiment": "in vivo", "conditions": "male, BALB/c, mouse, po, 50 mg/kg", "experimental": "(§2) The vehicle used for PK study was 1% v/v Tween 80 in 0.5% sodium CMC in water. Blood samples were collected (n=3/time point) at 0.083 (IV only), 0.25, 0.5, 1, 2, 4, 8 and 24 h, post-dose. At each time point about 200 μL of blood was collected by jugular vein into a labeled microfuge tube containing 200 mM K2EDTA solution (20 μL per mL of blood) and equivalent volume of heparinized saline was replaced following sample collection. The blood samples were processed to obtain the plasma samples within 30 min of scheduled sampling time. All plasma samples were stored below −60° C. until bioanalysis. […] The pharmacokinetic parameters of compound of formula A were calculated using the non-compartmental analysis tool of validated Phoenix® WinNonlin® software (version 6.3)."}, "[4]": {"experiment": "pH dependent stability in buffers, SGF, SIF and plasma", "assay_type": "physicochemical", "conditions": "pH 1.2, pH 4.0, pH 6.8, PBS pH 7.4, SGF (pH 1.2), SIF (pH 6.8) and plasma, upto 24 hrs", "method": "The stability of compound was performed in pH 1.2 buffer, pH 4.0 buffer, phosphate buffer pH 6.8, phosphate buffered saline pH 7.4, SGF (pH 1.2), SIF (pH 6.8) and plasma upto 24 hrs. The % compound hydrolyzed or degraded was determined by HPLC analysis."}, "physchem": {"experiment": "physchem", "conditions": "37 °C, water, thermodynamic from solid"}, "leukemia xenograft": {"tested_on": "leukemia xenograft", "conditions": "50 mg/kg, po; cited from earlier work"}, "[5]": {"experiment": "In-vitro dissolution, USP type-2 paddle apparatus, sink conditions", "assay_type": "physicochemical", "conditions": "50 rpm, 37° C.", "method": "as §1\nThe dissolution profile of compound and solid dispersion formulation VKB-SD75 was studied in sink conditions. For the sink condition, 0.25% SLS was added to dissolution media and dissolution was studied in water and pH 6.8 phosphate buffer (Ilevbare, G. A. et al., Pharmaceutical amorphous solid dispersions, Eds. John Wiley & Sons 2015, pp. 218). The dissolution studies were carried out using Lab-India Dissolution Tester (Model: DS 8000; apparatus 2—Paddle Apparatus) at 50 rpm and 37° C.±0.5 and dissolution media volume was 250 mL. Formulation equivalent to 10 mg of compound was added to each dissolution vessel in triplicate and 1 ml sample was taken and replaced by fresh dissolution media at different time points (0.25, 0.50, 1, 2, 4, 6 hrs).\nThe percentage drug dissolved was determined by HPLC analysis. […]"}, "[6]": {"conditions": "male, BALB/c, mouse, in vivo, po, 50 mg/kg", "experimental": "as §2"}}, "note": "“And” between values parts separate entries of the source, which are not always exact repeats. Equal values may be shown once.", "data": [{"compound": "CN1CC[C@H](c2c(O)cc(O)c3c(=O)cc(/C=C/c4c(Cl)cccc4Cl)oc23)[C@H](O)C1", "note": "[Compound of formula A, (1′R,2′S)-2-(2,6-dichlorostyryl)-5,7-dihydroxy-8-(3-hydroxy-1-methylpiperidin-4-yl)-4H-chromen-4-one]", "values": [{"measurement": "GI50", "setting": "MIAPaCa-2", "result": "< 1", "unit": "µM"}, {"measurement": "CYP/efflux-pump liability", "setting": "CYP/efflux-pump", "result": "did not have CYP/efflux-pump liability"}, {"measurement": "Mortality", "setting": "[1]; 50 mg/kg p.o", "result": "0/7"}, {"measurement": "% Tumor growth inhibition on 13th day", "setting": "[1]; 50 mg/kg p.o, once daily day 1-9", "result": "24.75% and 24.75 ± 3.52%"}, {"measurement": "Mortality", "setting": "[1]; 75 mg/kg p.o.", "result": "0/7"}, {"measurement": "% Tumor growth inhibition on 13th day", "setting": "[1]; 75 mg/kg p.o., once daily day 1-9", "result": "30.92% and 30% and 30.92 ± 5.32%"}, {"measurement": "Mortality", "setting": "[1]; 100 mg/kg p.o.", "result": "0/7"}, {"measurement": "% Tumor growth inhibition on 13th day", "setting": "[1]; 100 mg/kg p.o., once daily day 1-9", "result": "38.63 ± 3.65", "unit": "%"}, {"measurement": "selectivity for cancer cells over normal fibroblast-cells", "setting": "[2]", "result": "highly selective"}, {"measurement": "solubility at 24 h", "setting": "[3]", "result": "10 to 20", "unit": "µg/mL"}, {"measurement": "GI50", "setting": "Molt-4", "result": "< 1", "unit": "µM"}, {"measurement": "log P", "setting": "Lipophilicity (log P)", "result": 3.10}, {"measurement": "in-vivo efficacy in pancreatic xenograft", "setting": "pancreatic xenograft", "result": "showed in-vivo efficacy"}, {"measurement": "in-vivo efficacy in colon xenograft", "setting": "colon xenograft", "result": "showed in-vivo efficacy"}, {"measurement": "Tmax", "setting": "in vivo", "result": 1, "unit": "h"}, {"measurement": "% drug remaining", "setting": "[4]", "result": "> 95", "unit": "%"}, {"measurement": "solubility at 120 min", "setting": "physchem", "result": "10 to 20", "unit": "µg/mL"}, {"measurement": "in-vivo efficacy in leukemia xenograft", "setting": "leukemia xenograft", "result": "showed in-vivo efficacy"}, {"measurement": "% drug dissolution", "setting": "[5]; phosphate buffer pH 6.8, 0.25% SLS, after 1 h", "result": 63, "unit": "%"}, {"measurement": "% drug dissolved", "setting": "[5]; water containing 0.25% SLS, after 2 h", "result": 49.15, "unit": "%"}, {"measurement": "AUClast", "setting": "[6]", "result": 2570, "unit": "ng·h/mL"}, {"measurement": "Cmax", "setting": "[6]", "result": 656, "unit": "ng/mL"}]}, {"compound": "O=c1[nH]cc(F)c(=O)[nH]1", "note": "[Formulation 5-FU, 5-fluorouracil, reference compound]", "values": [{"measurement": "Mortality", "setting": "[1]; 22 mg/kg, i/p", "result": "0/7"}, {"measurement": "% Tumor growth inhibition on 13th day", "setting": "[1]; 22 mg/kg, i/p, day 1-9", "result": "49.44 ± 6.32", "unit": "%"}]}]}
